# Experiment: Solubility of the compounds: visual homogeneity of mixture in aqueous buffer pH 7
# Assay type: physicochemical
# Set-up: key to Visual homogeneity After 1 hour / Visual homogeneity After 1 day / Visual homogeneity After 4 days / Visual homogeneity After 1 week / Visual homogeneity After 2 weeks: −: heterogeneous mixture; +: homogeneous mixture
# Conditions: for Time after which the mixture becomes homogeneous: 100 mg compound in 5 ml aqueous buffer pH = 7; for Visual homogeneity After 1 week / Visual homogeneity After 2 weeks / Visual homogeneity After 1 hour / Visual homogeneity After 1 day / Visual homogeneity After 4 days: 100 mg compound in 5 ml aqueous buffer pH = 7, room temperature
# Method: Solubility of the Compounds
# 100 mg of the inventive and comparative compounds were added to 5 ml of a CertiPUR pH=7 buffer solution available from Merck. The mixture was gently stirred at room temperature and the homogeneity of the mixture was evaluated visually after different times: […]
Structure (SMILES),Time after which the mixture becomes homogeneous,Visual homogeneity After 1 week,Visual homogeneity After 2 weeks,Visual homogeneity After 1 hour,Visual homogeneity After 1 day,Visual homogeneity After 4 days
C=C(C)C(=O)OCCOC(=O)C(=O)OCCOC(=O)C(=C)C [Compound M-1],1 week,+,+,−,−,−
C=CC(=O)OCCCCOC(=C)C(=O)OCCCCOC(=O)C=C [Compound M-2],1 week,+,+,−,−,−
C=CC(=O)NCCOC(=O)C(=O)OCCNC(=O)C=C [Compound M-3],1 days,+,+,−,+,+
C=C(C)C(=O)OCCCNC(=O)C(=O)NCCCOC(=O)C(=C)C [Compound M-4],,−,−,−,−,−
C=C(C)C(=O)OCCOC(=O)NCCC(C)CC(C)(C)CNC(=O)OCCOC(=O)C(=C)C (centres unmarked) [Compound M-5],,−,−,−,−,−
C=CC(=O)OCCn1c(=O)n(CCOC(=O)C=C)c(=O)n(CCOC(=O)C=C)c1=O [Compound M-6],,−,−,−,−,−
C=CC(=O)OCCOCCOc1ccc(C(C)(C)c2ccc(OCCOC(=O)C=C)cc2)cc1 [Compound M-7],,−,−,−,−,−
